Assay results reported in patent publication EP0884054B9, “Fixed-dose association of an angiotensin-converting enzyme inhibitor and of a calcium channel antagonist for the treatment of cardiovascular illnesses” (Procter & Gamble Pharmaceuticals S.A.R.L., priority 1997, dated 1998).
Where a name gives a salt, the structure may show the parent alone. Read-outs that look alike come from different tables or passages of the source.

Tests used:
[1] = tested on: rat experimentally hypertense by aortic coarctation; assay: Antihypertensive activity in the rat experimentally hypertense by aortic coarctation (conscious animal); format: in vivo; conditions: for diastolic arterial pressure / systolic arterial pressure / distolic arterial pressure: mean(SD)
Description: The antihypertensive activity of the association of enalapril and nitrendipine was tested in comparison with each one of the isolated components in an experimental model of hypertension by arterial coarction in the rat. Measurement of the arterial pressure was carried out with the animal conscious. The doses tested were as follows: • Enalapril maleate 1 mg/kg (p.o.) • Nitrendipine 3 mg/kg (p.o.) • Enalapril maleate and Nitrendipine (1 and 3) mg/kg (p.o.) • Enalapril maleate and Nitrendipine (0.5 and 1.5) mg/kg (p.o.) The control group received the carrier (CMC Carboxymethylcellulose 1% en distilled water), the administration volume being […] (p.o.).

[2] = tested on: male patients with slight-moderate AHT; assay: Placebo-controlled open clinical trial in slight-moderate AHT; format: in vivo; conditions: single-drug treatment, 5 mg once a day for 2 weeks (9 patients nitrendipine, 11 patients enalapril)
Description: A placebo-controlled, open clinical trial was carried out in male patients with slight-moderate AHT, defined as systolic blood pressure values (SAT) between 165 and 144 mmHg and diastolic blood pressure values (DAT) between 95 and 105 mmHg, taken in decubitus position after 5 minutes' rest.

[3] = at 10 minutes; stable formulation of enalapril sodium salt according to EP-A-0545194; cited from earlier work
[4] = tested on: patients with congestive heart failure; conditions: long-term treatment (over one year), cited from earlier work
[5] = 3 mg/kg p.o., 0 minutes following administration
[6] = 3 mg/kg p.o., 5 minutes following administration
[7] = 3 mg/kg p.o., 15 minutes following administration
[8] = 3 mg/kg p.o., 30 minutes following administration
[9] = 3 mg/kg p.o., 45 minutes following administration
[10] = 3 mg/kg p.o., 60 minutes following administration
[11] = 3 mg/kg p.o., 120 minutes following administration
[12] = 3 mg/kg p.o., 240 minutes following administration
[13] = 3 mg/kg p.o., 360 minutes following administration
[14] = 3 mg/kg p.o., 540 minutes following administration
[15] = 1 mg/kg p.o., 0 minutes following administration
[16] = 1 mg/kg p.o., 5 minutes following administration
[17] = 1 mg/kg p.o., 15 minutes following administration
[18] = 1 mg/kg p.o., 30 minutes following administration
[19] = 1 mg/kg p.o., 45 minutes following administration
[20] = 1 mg/kg p.o., 60 minutes following administration
[21] = 1 mg/kg p.o., 120 minutes following administration
[22] = 1 mg/kg p.o., 240 minutes following administration
[23] = 1 mg/kg p.o., 360 minutes following administration
[24] = 1 mg/kg p.o., 540 minutes following administration

CCOC(=O)C1=C(C)NC(C)=C(C(=O)OC)C1c1cccc([N+](=O)[O-])c1 (racemic) [Nitrendipine, ethyl and methyl ester of the acid 1,4-dihydro-2,6-dimethyl-4-(3-nitrophenyl)-3,5-pyridindicarboxylic]
diastolic arterial pressure [1, 5]: 136(5) | systolic arterial pressure [1, 5]: 172(6) | diastolic arterial pressure [1, 6]: 105(1) | systolic arterial pressure [1, 6]: 119(2) | diastolic arterial pressure [1, 7]: 83(4) | systolic arterial pressure [1, 7]: 117(6) | diastolic arterial pressure [1, 8]: 84(2) | systolic arterial pressure [1, 8]: 112(4) | diastolic arterial pressure [1, 9]: 88(5) | systolic arterial pressure [1, 9]: 115(3) | diastolic arterial pressure [1, 10]: 92(1) | systolic arterial pressure [1, 10]: 119(6) | diastolic arterial pressure [1, 11]: 113(4) | systolic arterial pressure [1, 11]: 141(5) | diastolic arterial pressure [1, 12]: 128(3) | systolic arterial pressure [1, 12]: 163(2) | diastolic arterial pressure [1, 13]: 132(2) | systolic arterial pressure [1, 13]: 169(1) | diastolic arterial pressure [1, 14]: 131(5) | systolic arterial pressure [1, 14]: 160(5) | return to basal values following administration ([1]; oral administration, 3 mg/kg): 4 h | blood pressure normalized, number of patients [2]: 1 patients

CCOC(=O)[C@H](CCc1ccccc1)N[C@@H](C)C(=O)N1CCC[C@H]1C(=O)O [Enalapril maleate, 1-(N-((S)-1-ethoxycarbonyl-3-fenilpropyl) -L-alanil)-L-prolina]
systolic arterial pressure [1, 15]: 168(6) | systolic arterial pressure [1, 16]: 165(5) | systolic arterial pressure [1, 17]: 144(2) | systolic arterial pressure [1, 18]: 139(3) | systolic arterial pressure [1, 19]: 139(6) | systolic arterial pressure [1, 20]: 134(1) | systolic arterial pressure [1, 21]: 141(3) | systolic arterial pressure [1, 22]: 146(1) | systolic arterial pressure [1, 23]: 148(4) | systolic arterial pressure [1, 24]: 165(6) | antihypertensive effect ([1]; oral administration, 1 mg/kg): moderate antihypertensive effect | antihypertensive effect sustained following administration ([1]; oral administration, 1 mg/kg): up to 6 hours

CCOC(=O)[C@H](CCc1ccccc1)N[C@@H](C)C(=O)N1CCC[C@H]1C(=O)O [enalapril, 1-(N-((S)-1-ethoxycarbonyl-3-fenilpropyl) -L-alanil)-L-prolina]
dissolution rate of enalapril [3]: 100% | improvement of mortality and morbidity rates ([4]; severe heart failure (CONSENSUS)): approximately 30% | improvement of mortality and morbidity rates ([4]; slight and moderate heart failure (SOLVD)): approximately 15% | distolic arterial pressure [1, 15]: 138(5) | distolic arterial pressure [1, 16]: 138(3) | distolic arterial pressure [1, 17]: 123(1) | distolic arterial pressure [1, 18]: 116(4) | distolic arterial pressure [1, 19]: 117(1) | distolic arterial pressure [1, 20]: 109(1) | distolic arterial pressure [1, 21]: 116(5) | distolic arterial pressure [1, 22]: 116(3) | distolic arterial pressure [1, 23]: 117(2) | distolic arterial pressure [1, 24]: 126(4) | blood pressure normalized, number of patients [2]: 2 patients
